{
  "source": "patent US12151018B2",
  "about": "(priority 2019, dated 2024)",
  "test_system": "Caenorhabditis elegans",
  "conditions": "in vivo",
  "data": [
    {"substance": "argireline", "values": [
      {"measurement": "amount needed alone for the same level of effect as argireline 100 ppm plus Z. piperitum extract 500 ppm", "result": "100,000 ppm"}
    ]}
  ]
}
